Experimental data as given in US10563271B2, “High-level production of diacetyl in a metabolically engineered lactic acid bacterium” (Danmarks Tekniske Universitet, priority 2015, dated 2020).

Key:
[1] = tested on: L. lactis strain CS4616m; assay: Inhibition of growth of CS4616m culture by metal ions or diacetyl; type: cell-based, Lactococcus lactis subsp. cremoris
Protocol: FIG. 5. Inhibitory effect of diacetyl on growth of L. lactis CS4616m. (A) Graphical presentation of cell growth of L. Lactis strain CS4616m, as measured by cell density (OD600 nm), in the presence of diacetyl (0-10 mM), which was added when the culture reached a cell density (OD600 nm) of 0.6. (B) Graphical presentation of cell growth of L. Lactis strain CS4616m, as measured by cell density (OD600 nm), and substrate/product profile in the presence of 10 mM Fe^3+ (added in the beginning of growth phase).
The observed high yields of diacetyl by cells of the L. lactis strain CS4616m are achieved by the addition of metal ions to the cells after they have reached the desired cell biomass. […] The final biomass of a culture grown in the presence of 10 mM Fe^3+ was only 3.3 (OD600 nm) (FIG. 5B) compared to 8.5 (OD600 nm) in the absence of a Fe^3+ supplement (FIG. 5A). […] In summary, for optimal diacetyl production, L. lactis strain CS4616m should be cultivated under aerobic conditions in the presence of a carbon source, e.g. glucose, in the presence of hemin until a sufficient biomass has been reached, followed by the addition of metal ions, preferably Fe^3+ or Cu^2+), and maintaining the aerobic conditions, in order for the accumulated acetolactate to be converted into diacetyl with high yield. The observed increase in diacetyl production by cells of the L. lactis strain CS4616m in response to Fe^3+, Fe^2+ and Cu^2+ is consistent with the finding that these metal ions serve as accelerators of the non-enzymatic oxidative decarboxylation flux from acetolactate to diacetyl. Optionally, once a sufficient biomass of the genetically modified Lactococcus lactis has been obtained following cultivation in the presence of a source of protoporphyrin IX or iron-containing porphyrin (e.g. hemin), the conversion of accumulated acetolactate can be accelerated by elevating the temperature of the culture or culture medium, for example to 60-65 degrees centigrade.

[2] = tested on: L. lactis strain CS4616m; assay: Metal ion enhancement of diacetyl production from acetolactate in stationary-phase CS4616m culture; parameters: species or system Lactococcus lactis subsp. cremoris
Protocol: Graphical presentation of diacetyl formation from acetolactate as a function of time (hr) when L. lactis strain CS4616m is cultured in the presence of increasing levels of either Fe^3+ (B); Fe^2+ (C); and Cu^2+ (D). The time point for adding the metal catalysts during the cultivation of L. Lactis strain CS4616m was at 9.8 h, which is indicated by the straight line in (A). Experiments were conducted in duplicate and error bars indicate standard deviations.
Glucose, lactate, and ethanol were detected and quantitated using the Ultimate 3000 high-pressure liquid chromatography system (Dionex, Sunnyvale, USA) equipped with a Aminex HPX-87H column (Bio-Rad, Hercules, USA) and a Shodex RI-101 detector (Showa Denko K.K., Tokyo, Japan). Pyruvate was detected and quantitated using the DAD-3000 diode array detector (Dionex, Sunnyvale, USA). The column oven temperature was set at 60° C. with a mobile phase of 5 mM H2SO4, and the flow rate was 0.5 ml/min. Acetoin and α-acetolactate were measured colorimetrically based on Westerfeld et al. (1945). Diacetyl concentration was determined as described by Benson et al (1996).
When the cells entered the stationary phase, different concentrations of these metal catalysts were added to the cultivation medium. […] The yield and productivity for diacetyl production was as high as 0.87 mol mol^−1 glucose and 0.58 g/L·h based on 4 h data.

[3] = tested on: L. lactis strain CS4616m; assay: Respiration-dependent aerobic growth of L. lactis strain CS4616m at different hemin concentrations; type: cell-based, Lactococcus lactis subsp. cremoris
Protocol: L. lactis were grown aerobically at 30° C. in rich M17 broth (Terzaghi et al., 1975) supplemented with 2% (w/v) glucose and different concentrations of hemin in shaken 250 ml conical flasks. When required, antibiotics were added in the following concentrations: erythromycin: 200 μg/ml for E. coli and 5 μg/ml for L. lactis, tetracycline: 8 μg/ml for E. coli and 5 μg/ml for L. lactis, chloramphenicol: 20 μg/ml for E. coli and 5 μg/ml for L. lactis.
However, growth of the L. lactis strain was restored under aerobic conditions when hemin was present (FIG. 2B). The specific growth rate and final biomass density (OD600 nm) of the L. lactis strain increased in response to hemin concentrations of above 0.2 μg/ml, where a growth rate of 0.8 h^−1 and cell density of OD600 nm 8.5 was measured using a growth medium comprising 2% glucose, hemin levels were 1 μg/ml or above.

[4] = tested on: L. lactis strain CS4616m; assay: Measurement of intracellular NADH and NAD+ (NAD+/NADH-Glo Assay); type: cell-based, Lactococcus lactis subsp. cremoris
Protocol: L. lactis cell culture harvested in the mid-exponential growth phase (OD600 nm=0.6) was frozen in liquid nitrogen and stored at −20° C. Extraction and quantification of NADH and NAD^+ were performed using the kit NAD^+/NADH-Glo™ Assay (Promega) according to the instructions. Intracellular NADH and NAD^+ concentrations were estimated by assuming that 1 g (dry weight) of cells corresponded to 1.67 ml of intracellular volume and the cell density of 1 OD600 nm corresponds to 0.35 g/I dry cell mass.
In the L. lactis respiration chain (FIG. 2A), electrons are transferred from NADH dehydrogenase (NoxAB), menaquinone to Cyt bd oxidase in the presence of hemin. The observed growth and NADH/NAD+ ratio of genetically engineered strain CS4616m induced by hemin is consistent with the theory that NADH generated by the glycolysis pathway can be replenished through respiration and that suitable hemin activators can be used to fine-tune respiration and restore cell growth in this strain.

[5] = 10 or 20 mM, present in growth medium from the beginning of the growth phase
[6] = aerobic, growth medium 2% glucose, hemin 1 μg/ml or above

For `CC(=O)C(C)=O` [diacetyl], the cell growth ([1]; diacetyl (0-10 mM) added at OD600 nm of 0.6) was “inhibit cell growth”.
For `[Cu+2]` [Cu^2+], the diacetyl concentration ([2]; 30 mM Cu^2+ added at stationary phase, after 1 h) was 78 mM, the “productivity for diacetyl production” value ([2]; 30 mM Cu^2+, after 1 h) was 0.619 g/L·h and the cell growth [1, 5] was “inhibited growth”. For the same compound, the cell growth ([1]; metal ion added during the growth phase) was “totally abolished cell growth”.
Compound `[Fe+3]` [Fe^3+] has a diacetyl concentration ([2]; 20 mM Fe^2+ added at stationary phase, after 4 h) of 78 mM, a diacetyl concentration ([2]; 30 mM Fe^3+ added at stationary phase, after 2 h, 108 mM glucose) of 85 mM and a diacetyl concentration ([2]; 30 mM Fe^3+ added at stationary phase, after 4 h, 108 mM glucose) of 95 mM. The “productivity for diacetyl production” value ([2]; 30 mM Fe^3+, based on 4 h data) was 0.58 g/L·h, the “yield for diacetyl production” value ([2]; 30 mM Fe^3+, based on 4 h data) was 0.87 mol mol^−1 glucose and the final biomass ([1]; 10 mM Fe^3+ from beginning of growth, 8.5 without Fe^3+ supplement) was 3.3 OD600 nm. The cell growth [1, 5] was “inhibited growth”.
For hemin, the cell density [3, 6] was 8.5 OD600 nm, the growth rate [3, 6] was 0.8 h⁻¹ and the “effect on cell growth” value ([3]; elevated hemin, circa 10 μg/ml or above (data not shown)) was “significant negative effect on cell growth”. For the same compound, the “final cell biomass and NADH/NAD+ ratio” value ([3]; hemin above 1 μg/ml (e.g. 5 μg/ml)) was “did not further increase”, the “growth of the strain under aerobic conditions” value ([3]; hemin present) was “restored” and the “NADH/NAD+ ratio” value ([4]; 0.3 μg/ml hemin) was 0.07. For the same compound, the “intracellular NAD+ concentration” value ([4]; 0.3 μg/ml hemin) was 0.25 mM, the “NADH/NAD+ ratio” value ([4]; 1 μg/ml hemin) was 0.03 and the “intracellular NAD+ concentration” value ([4]; 1 μg/ml hemin) was 0.47 mM.
